These results are taken from ChEMBL document CHEMBL1201862, “PubChem BioAssay data set” (2004).

Holding throughout (test): growth of human tumour cells (NCI), 48 h
The test system of assay [1] is DLD-1.
For assay [2], the system named is DMS-114.
The subject of assay [3] is DMS-273.
For assay [4], the system named is HOP-18.
Assay [5] deals with LXFL 529.
For assay [6], the system named is M19-MEL.
Assay [7] concerns RXF 631.
Assay [8] relates to SNB-78.
In assay [9] the test system is XF498.

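Five compound concentrations were applied to cells in 96-well plates for 48 hours; endpoints were derived by simple linear interpolation of the resulting dose-response curve. GI50 = concentration required for 50% inhibition of growth.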 Activity calls are given as the source filed them. Cut-off read from the data, not from the text of the source: active = GI50 up to about 1.1 µM and inactive = higher. Bounds are passed on as bounds.

As for `CC1(O)CCC2(C#N)CCC1C2O` (centres undefined), the GI50 in [1] was 34 µM (inactive); in assay [2], 16.2 µM (inactive); in [3] it was 94.4 µM (inactive); in assay [4], > 100 µM (inactive); in [5], > 100 µM (inactive); in [6] it was > 100 µM (inactive). Besides, the GI50 in assay [7], in [8] and in assay [9] was > 100 µM (inactive) in each case.
With `CCCCCNC(=O)c1c(O)[nH]c(=S)[nH]c1=O`, the GI50 in assay [2] is 60.7 µM (inactive); in [5] it was > 100 µM (inactive); in assay [6], > 100 µM (inactive); in assay [7], > 100 µM (inactive); in [8], > 100 µM (inactive).
Turning to `CC(=O)NC(CCCNC(=O)OCc1ccccc1)C(=O)O` (centres undefined), the GI50 in assay [1] is > 100 µM (inactive); in assay [2], > 100 µM (inactive); in assay [3], > 100 µM (inactive); in [5], 47.5 µM (inactive); in assay [6], > 100 µM (inactive); in [7] it was > 100 µM (inactive). Also, the results for the GI50 in assay [8] and in [9] were 49.5 µM (inactive) and > 100 µM (inactive), respectively.
In the case of `O=C(CSc1nnc(-c2ccc(/N=C\c3ccc(Cl)cc3)cc2)o1)Nc1ccccc1`, the GI50 in [2] is 58.1 µM (inactive); in assay [3] it was 27.3 µM (inactive); in assay [4], 54.2 µM (inactive); in assay [5] it was 50.6 µM (inactive); in [6], 36.6 µM (inactive); in assay [8], 63.1 µM (inactive). Besides, in assay [9], the GI50 is > 100 µM (inactive).
For the compound `N#C/C(=C\c1ccc(C(O)P(=O)(O)O)cc1)C(N)=O` (centres undefined), the GI50 was > 100 µM (inactive) in assay [1]; 17.2 µM (inactive) in [2]; > 100 µM (inactive) in assay [3]; > 100 µM (inactive) in assay [4]; > 100 µM (inactive) in [5]; > 100 µM (inactive) in [6]. The GI50 in [7], in assay [8] and in [9] was > 100 µM (inactive) in each case.
For the compound `Cc1c(N2CCN(C)CC2)nc2ccc(Cl)cc2c1-c1ccccc1`, the GI50 in assay [2] is 15.8 µM (inactive); in [3] it was 17 µM (inactive); in assay [5] it was 16.9 µM (inactive); in assay [8], 16.3 µM (inactive).
With `Cc1c(/C=N/NC(=O)c2ccccc2O)c(=O)n(-c2ccccc2)n1C`, the GI50 in assay [1] is > 100 µM (inactive); in [2], > 100 µM (inactive); in [3], 58.5 µM (inactive); in assay [4], > 100 µM (inactive); in assay [5], > 100 µM (inactive); in assay [6], > 100 µM (inactive). In addition, the GI50 in [8] and in [9] was > 100 µM (inactive) each time.
Turning to `O=c1cc(O)ccn1C1C=C(CO)C(O)C1O` (centres undefined), the GI50 was > 625 µM (inactive) in assay [1]; > 625 µM (inactive) in assay [2]; > 625 µM (inactive) in assay [3]; > 625 µM (inactive) in assay [4]; > 625 µM (inactive) in [8]; < 0.0625 µM (active) in [9].
As for `C[C@H]1COC2(c3ccccc3)CCC(=O)N12` (some centres undefined), the GI50 in assay [1], in [2], in assay [3], in assay [4], in assay [6] and in [8] was > 100 µM (inactive) throughout. Moreover, in assay [9], the GI50 is > 100 µM (inactive).
In the case of `COc1cc(-c2ccc(/N=N/c3c(S(=O)(=O)O)cc4cc(S(=O)(=O)O)cc(N)c4c3O)c(OC)c2)ccc1/N=N/c1c(S(=O)(=O)O)cc2cc(S(=O)(=O)O)cc(N)c2c1O`, the GI50 was > 94 µM (inactive) in assay [1]; 73.1 µM (inactive) in assay [2]; > 74.6 µM (inactive) in assay [3]; > 100 µM (inactive) in assay [6]; 78.3 µM (inactive) in assay [8]; 6.89 µM (inactive) in [9].
